“Also recorded” adds a separate entry of the source.
Columns and labels:
Type in all cases: physicochemical
[1] = Liposomal drug loading (encapsulation) at 50° C., Sephadex G-50 spin column, UV assay; settings: for liposomal encapsulation (result in words): 50° C. (FIG. 2); for increase of irinotecan/lipid molar ratio: TEA containing liposomes (FIG. 10); for irinotecan encapsulation efficiency: 50° C.
Method: The lipids were labeled with trace amounts of ^3H-cholesteryl hexadecyl ether, a non-exchangeable, non-metabolizeable lipid marker to allow liposome quantitation by scintillation counting. The solvent was evaporated under a stream of nitrogen and dried under vacuum for at least 4 hours. […] The mean size distribution of the resulting large unilamellar vesicles (80-120 nm) was determined using a Nicomp submicron particle sizer model 370 (Nicomp, Santa Barbara, Calif.). For irinotecan loading, the solutions of irinotecan were made by dissolving the drug either in water at 50° C. or in sucrose phosphate buffer (300 mM sucrose, 40 mM phosphate) at room temperature. When necessary, the pH of the solution was adjusted to the desired value using NaOH. The final concentration of irinotecan was 15 mM. […] The precipitate was isolated by centrifugation (12000 rpm, 15 min) and was solubilized with 2 mM EDTA in water. Similar preparations were employed for daunorubicin. For liposomal loading, the drug solution and the liposomes were incubated separately at 50° C. for approximately five minutes to equilibrate the temperature. […] Aliquots of 75 μl were applied to a Sephadex G-50 spin column. The columns were prepared by adding glass wool to a 1 ml syringe and Sephadex G-50 beads hydrated in sucrose phosphate buffer (300 mM sucrose, 40 mM phosphate, pH 7.0). The columns were packed by spinning at 290×g for 1 minute. Following addition of the sample to the column, the liposome fraction was collected in the void volume by centrifuging at 515×g for 1 minute. Aliquots of the spin column eluant and the pre-column solution were taken and analyzed by liquid scintillation counting to determine the lipid concentration at each time point. The irinotecan concentration in each liposomal fraction was determined using a UV-based assay. […] The samples were cooled to ambient temperature. The absorbance at 370 nm was measured and compared to a standard curve. The concentration of TEA was determined by HPLC.

[2] = Irinotecan loading into diethanolamine buffered liposomes at 50° C.; settings: 100 mM copper gluconate/140 mM diethanolamine pH 7.0 inside, sucrose/phosphate/EDTA buffer outside, target drug to lipid ratio 0.1 (FIG. 13)
Method: DSPC, cholesterol and DSPG were weighed out into capped scintillation vials. DSPC was dissolved in chloroform at 60 mg/ml, cholesterol was dissolved in chloroform at 25 mg/ml, and DSPG was dissolved in chloroform:methanol:water (50/10/1) at 30 mg/ml. The lipids were then combined in the appropriate proportions. […] A stream of N2 gas, while heating the mixture, was used to remove solvent. The resulting lipid films were left under vacuum for a few minutes, then redissolved in chloroform. The drying process was then repeated, and the lipid films were allowed to dry on a vacuum pump for 4+hours. […] MLVs were extruded at 70° C. through two 100 nm filters for a total of eight passes without difficulty. The liposomes were then allowed to cool down to room temperature. Samples were buffer exchanged into 300 mM sucrose/20 mM phosphate/10 mM EDTA, pH 7.0 by tangential flow. […] Clinical material of Irinotecan was used for a Irinotecan stock. Drug and liposome samples were pre-heated separately at 50° C. for 5 minutes, then combined at t=0. […] Samples of the spun column eluant and the pre-column solution were counted by liquid scintillation counting to determine the lipid concentration at each time point. Irinotecan concentrations were determined using a UV assay. […] Irinotecan is quantitated by absorbance at 370 nm against a standard curve.

[3] = Lactone/carboxylate form of irinotecan in solution (FTIR, HPLC)
Excerpt: FTIR measurements were made at room temperature in transmission mode using a Nicolet Nexus 870 spectrometer (Nicolet Instrument, Madison, Wis., USA) equipped with a liquid nitrogen-cooled mercury cadmium telluride detector. […] Inc. Buena, N.J.). The sample was dried with a stream of nitrogen and left overnight in a desiccator before recording the spectra. For each spectrum, 250 scans were co-added at a 4 cm^−1 resolution, using a Happ-Genzel apodization. Data analysis was done using the Grams AI software (Galactic Industries, Salem, N.H., USA). The second derivative of the spectra was performed to determine the frequency of the components of unresolved bands. Vibrational spectroscopy was used to further investigate the potential interaction between irinotecan and copper in free solution. […] Since irinotecan has several possible binding sites, tentative assignment of the bands of the spectra to its functional groups was performed in order to identify which group is involved in an interaction with copper gluconate/TEA. The C═O stretching absorption bands appear in the region of 1870-1540 cm^−1. The position of the carbonyl bands is affected by several factors including intermolecular and intramolecular hydrogen bonding. […] This conversion to the carboxylate form was confirmed by HPLC analysis. […]

Row | liposomal encapsulation (result in words) [2] | liposomal loading (result in words) ([1]; TEA buffered internal solution pH 7.0, external phosphate buffer pH 7.0, 50° C. (FIG. 1)) | increase of irinotecan/lipid molar ratio ([1]; after 2 min at 50° C.) | increase of irinotecan/lipid molar ratio ([1]; after 60 min at 50° C.) | irinotecan encapsulation efficiency ([1]; copper gluconate/TEA containing liposomes (100 mM copper gluconate/180 mM TEA, pH 7.0)) | irinotecan concentration inside the liposomes upon encapsulation ([1]; intra-liposomal) | irinotecan encapsulation efficiency ([1]; liposomes containing 10 mM sodium gluconate/180 mM TEA, pH 7.0) | irinotecan encapsulation efficiency ([1]; liposomes containing TEA/phosphate buffer (150 mM TEA, 95 mM phosphate, pH 7.0), 0.2:1 drug to lipid (mol:mol)) | drug loading (result in words) ([1]; liposomes containing copper gluconate adjusted to pH 7.0 with NaOH (no TEA)) | drug encapsulation (result in words) ([1]; liposomes containing sucrose phosphate buffer (no TEA)) | reduction of the amount of drug loading ([1]; liposomes with 100 mM copper gluconate, TEA decreased to 90 mM, pH 7.0 (FIG. 11)) | irinotecan encapsulation ([1]; liposomes with 100 mM copper gluconate, TEA increased to 270 mM, pH 7.0 (FIG. 11)) | form of irinotecan in solution ([3]; pH 7.0 (data not shown)) | form of irinotecan in solution ([3]; pH 8.7, confirmed by HPLC) | Structure (SMILES) | liposomal encapsulation (result in words) ([1]; triethanolamine hydrochloride internal solution, pH 7.0) | liposomal encapsulation (result in words) ([1]; triethanolamine/sodium gluconate/HCl internal solution, pH 7.0)
1 |  |  |  |  |  |  |  |  |  |  |  |  |  |  | COc1cccc2c1C(=O)c1c(O)c3c(c(O)c1C2=O)C[C@@](O)(C(C)=O)C[C@@H]3O[C@H]1C[C@H](N)[C@H](O)[C@H](C)O1 [daunorubicin] | successfully encapsulated | successfully encapsulated
2 | successfully encapsulated | successfully loaded | 0.08 μmol irinotecan/μmol lipid | 0.13 μmol irinotecan/μmol lipid | approximately 70% | > 50 mM | 70% | approximately 70% | negligible; also recorded: no loading | no drug encapsulation | 50% | approximately 90% | predominantly in its lactone form | primarily in the carboxylate form | CCc1c2c(nc3ccc(OC(=O)N4CCC(N5CCCCC5)CC4)cc13)-c1cc3c(c(=O)n1C2)COC(=O)[C@]3(O)CC [irinotecan] |  | 

Source: patent publication US20090148506A1, “LIPOSOMAL FORMULATIONS COMPRISING SECONDARY AND TERTIARY AMINES AND METHODS FOR PREPARING THEREOF” (priority 2005, published 2009)
